Assay results reported in US6759521B2, “Polarization switching to control crystal form” (priority 2000, dated 2004).

Settings: glycine in water, room temperature (21 C)
Description: Supersaturated solutions of glycine in water, with concentrations ranging from 3.7 M to 3.9 M, were prepared by combining appropriate amounts of solid glycine with 2 g of water in 1.3-cm diameter Pyrex test tubes with screw-on caps. Great care was taken to exclude dust from samples. Supersaturation was achieved by heating the samples in an ultrasonic bath at 50 C, and holding them at that temperature until the glycine was completely dissolved.

csat, concentration of a saturated solution: 2.69 M
Structure (SMILES): NCC(=O)O [glycine]
